Results as given in patent US20220387604A1, “SELECTIVE DUAL HISTONE DEACETYLASE 6/8 (HDAC6/8) DEGRADERS AND METHODS OF USE THEREOF” (DANA-FARBER CANCER INSTITUTE, INC., priority 2019, published 2022).

Assays:
HDAC6/8 = experiment: Quantitative proteomics of cellular protein abundance in Kelly cells: HDAC6/8; assay type: cell-based, human; details: moderated t-test, scatter plots FIG. 2A-2C, 4A-4B
Protocol: Lysis buffer (8 M Urea, 50 mM NaCl, 50 mM 4-(2hydroxyethyl)-1-piperazineethanesulfonic acid (EPPS) pH 8.5, protease and phosphatase inhibitors from Roche®) were added to the cell pellets and homogenized by 20 passes through a 21 gauge (1.25 in. long) needle to achieve a cell lysate with a protein concentration between 1-4 mg mL^−1. A micro-BCA assay (Pierce™) was used to determine the final protein concentration in the cell lysate. 200 μg of protein for each sample were reduced and alkylated as described in Donovan et al., Elife 7:e38430 (2018).
Proteins were precipitated using methanol/chloroform. Four volumes of methanol were added to the cell lysate, followed by one volume of chloroform, and finally three volumes of water. The mixture was vortexed and centrifuged to separate the chloroform phase from the aqueous phase. The precipitated protein was washed with three volumes of methanol, centrifuged and the resulting washed precipitated protein was allowed to air dry. The precipitated protein was resuspended in 4 M Urea, 50 mM HEPES pH 7.4, followed by dilution to 1 M urea with the addition of 200 mM EPPS, pH 8. Proteins were first digested with LysC (1:50; enzyme:protein) for 12 hours at room temperature. The LysC digestion was diluted to 0.5 M Urea with 200 mM EPPS pH 8 followed by digestion with trypsin (1:50; enzyme:protein) for 6 hours at 37° C. Tandem mass tag (TMT) reagents (Thermo Fisher Scientific) were dissolved in anhydrous acetonitrile (ACN) according to manufacturer's instructions.
Anhydrous ACN was added to each peptide sample to a final concentration of 30% v/v, and labeling was induced with the addition of TMT reagent to each sample at a ratio of 1:4 peptide:TMT label. The 10-plex labeling reactions were performed for 1.5 hours at room temperature and the reaction quenched by the addition of hydroxylamine to a final concentration of 0.3% for 15 minutes at room temperature. The sample channels were combined at a 1:1:1:1:1:1:1:1:1:1:1 ratio, desalted using C18 solid phase extraction cartridges (Waters®) and analyzed by LC-MS for channel ratio comparison. Samples were then combined using the adjusted volumes determined in the channel ratio analysis and dried down in a speed vacuum. The combined sample was then resuspended in 1% formic acid, and acidified (pH 2-3) before being subjected to desalting with C18 SPE (Sep-Pak®, Waters®). Samples were then offline fractionated into 96 fractions by high pH reverse-phase HPLC (Agilent® LC1260) through an aeris peptide xb-c18 column (Phenomenex®) with mobile phase A containing 5% acetonitrile and 10 mM NH4HCO3 in LC-MS grade H2O, and mobile phase B containing 90% acetonitrile and 10 mM NH4HCO3 in LC-MS grade H2O (both pH 8.0). The 96 resulting fractions were then pooled in a non-continuous manner into 24 fractions and these fractions were used for subsequent mass spectrometry analysis.
Data were collected using an Orbitrap Fusion™ Lumos™ mass spectrometer (Thermo Fisher Scientific, San Jose, Calif., USA) coupled with a Proxeon EASY-nLC™ 1200 LC pump (Thermo Fisher Scientific). Peptides were separated on an EasySpray™ ES803 75 μm inner diameter microcapillary column (ThermoFisher Scientific).
Each analysis used an MS3-based TMT method as described in McAlister et al., Anal. Chem. 86(14):7150-7158 (2014). The data were acquired using a mass range of m/z 340-1350, resolution 120,000, automatic gain control (AGC) target 1×10^6, maximum injection time 100 ms, dynamic exclusion of 120 seconds for the peptide measurements in the Orbitrap Fusion™ Lumos™ mass spectrometer. Data dependent MS2 spectra were acquired in the ion trap with a normalized collision energy (NCE) set at 55%, AGC target set to 1.5×10^5 and a maximum injection time of 150 ms. […]

[1] = target: T1, full length human HDAC8-EGFP (Homo sapiens, UniProt Q9BY41); experiment: HDAC8 reporter assay (HDAC8-EGFP with mCherry reporter); assay type: cell-based; details: 5 hour treatment, FIG. 6; hook effect at higher concentrations
T1 construct: Cells stably expressing the full length human HDAC8-EGFP with mCherry reporter; expressed in transfected cells; Cilantro2 vector (Addgene, 74450)
T1 sequence (Q9BY41 1-377): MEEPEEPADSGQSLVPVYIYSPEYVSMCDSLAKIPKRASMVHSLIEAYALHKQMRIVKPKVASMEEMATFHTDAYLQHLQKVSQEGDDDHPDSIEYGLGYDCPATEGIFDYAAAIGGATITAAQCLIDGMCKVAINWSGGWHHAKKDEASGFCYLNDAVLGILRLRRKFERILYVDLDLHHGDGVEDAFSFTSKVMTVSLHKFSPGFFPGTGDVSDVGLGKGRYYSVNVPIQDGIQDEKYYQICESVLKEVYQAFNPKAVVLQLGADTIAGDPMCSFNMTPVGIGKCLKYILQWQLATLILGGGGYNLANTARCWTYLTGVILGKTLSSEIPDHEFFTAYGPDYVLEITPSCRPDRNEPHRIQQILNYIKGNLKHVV
Protocol: Cells stably expressing the full length human HDAC8-EGFP with mCherry reporter in Cilantro2 vector (Addgene, 74450) were seeded at 30-50% confluency in 384-well plates with 50 μL FluoroBrite™ DMEM media (Thermo Fisher Scientific, A18967) containing 10% FBS per well a day before compound treatment. Compounds were dispensed using a D300e Digital Dispenser (HP), normalized to 0.5% DMSO, and incubated with cells for 5 hours. The assay plate was imaged immediately using an Acumen® High Content Imager (TTP Labtech) with 488 nm and 561 nm lasers in […] per well format. The resulting images were analyzed using CellProfiler™.
A series of image analysis steps (‘image analysis pipeline’) was constructed. First, the red and green channels were aligned and cropped to target the middle of each well (to avoid analysis of heavily clumped cells at the edges), and a background illumination function was calculated for both red and green channels of each well individually and subtracted to correct for illumination variations across the 384-well plate from various sources of error. An additional step was then applied to the green channel to suppress the analysis of large auto fluorescent artifacts and enhance the analysis of cell specific fluorescence by way of selecting for objects under a given size, 30 A.U., and with a given shape, speckles. mCherry-positive cells were then identified in the red channel filtering for objects between 8-60 pixels in diameter and using intensity to distinguish between clumped objects. The green channel was then segmented into GFP positive and negative areas and objects were labeled as GFP positive if at least 40% of it overlapped with a GFP positive area. The fraction of GFP-positive cells/mCherry-positive cells in each well was then calculated, and the green and red images were rescaled for visualization. The values for the concentrations that lead to a 50% degradation (DC50) were calculated using the nonlinear fit variable slope model in GraphPad Prism software.

Row | SMILES | reduction in HDAC6/8 protein levels compared to DMSO treated cells (HDAC6/8) | degradation of GFP tagged HDAC8 in the reporter cell lines [1]
1 | O=C(/C=C/c1ccc(CN(CCOCCOCCOCCOCCNc2cccc3c2C(=O)N(C2CCC(=O)NC2=O)C3=O)CCc2c[nH]c3ccccc23)cc1)NO (stereo not drawn) [Compound 5, (E)-3-(4-(2-(2-(1H-indol-3-yl)ethyl)-16-((2-(2,6-dioxopiperidin-3-yl)-1,3-dioxoisoindolin-4-yl)amino)-5,8,11,14-tetraoxa-2-azahexadecyl)phenyl)-N-hydroxyacrylamide] | significant reduction | degradation of GFP tagged HDAC8
2 | O=C(/C=C/c1ccc(CN(CCOCCOCCOCCNc2cccc3c2C(=O)N(C2CCC(=O)NC2=O)C3=O)CCc2c[nH]c3ccccc23)cc1)NO (stereo not drawn) [Compound 4, (E)-3-(4-(2-(2-(1H-indol-3-yl)ethyl)-13-((2-(2,6-dioxopiperidin-3-yl)-1,3-dioxoisoindolin-4-yl)amino)-5,8,11-trioxa-2-azatridecyl)phenyl)-N-hydroxyacrylamide] | – | degradation of GFP tagged HDAC8
